Experiment [1] addresses T1, Epidermal growth factor receptor [1-763,'FHEA',764-1210] (UniProt P00533).
T1 construct: 1-763,'FHEA',764-1210
The experiment in a line: Inhibitory Activity of Compounds Against EGFR Mutant Enzyme. The method, then:
(§1) The activity of the compounds of the present invention against EGFR mutant enzymes was measured using the HTRF system purchased from Cisbio as follows. For an EGFR mutant enzyme, the EGFR del19 enzyme was a recombinant protein purchased from Carna Biosciences, and the EGFR A763_Y764insFHEA enzyme was a recombinant protein purchased from SignalChem, respectively.The composition of the assay buffer used for activity measurement was 50 mM tris-HCl pH 7.5, 100 mM NaCl, 7.5 mM MgCl2, 3 mM KCl, 0.01% tween 20, 0.1% BSA, and 1 mM DTT. An enzymatic reaction was performed using a peptide substrate labeled with ATP at a concentration of […] and biotin at a concentration of […]. The analysis of the inhibitory effect of the compounds on EGFR activity was performed according to the following method.Component 1:4 μL of EGFR mutant enzymeComponent 2:2 μL of compound solutionComponent 3:4 μL of ATP and a biotin labeled peptideThe enzyme reaction begins by first mixing component 1 and component 2 and then adding component 3 thereto. After the reaction at 37° C. for 2 hours, […] of a measurement solution consisting of streptavidin-XL665 and a europium-labeled anti-phosphotyrosine antibody purchased from Cisbio was added to the enzyme reaction solution and reacted at room temperature for 1 hour. Finally, the ratio of fluorescence values at 615 nm and 665 nm was measured using Perkin-Elmer's Envision instrument to calculate enzyme activity and confirm the inhibitory ability of the compounds.

In experiment [2] the target is T2, Epidermal growth factor receptor [DEL746-750] (Homo sapiens, UniProt P00533).
T2 construct: gene EGFR
The description is as above. As for the experimental part: as §1

In experiment [3] the target is T3, Receptor tyrosine-protein kinase erbB-2 [1-775,'YVMA',776-1255] (Homo sapiens, UniProt P04626).
T3 construct: 1-775,'YVMA',776-1255
As to the kind of experiment: Inhibitory Activity of Compounds Against HER2 A775_G776insYVMA mutant enzyme. The method, then:
The activity of the compounds of the present invention against HER mutant enzymes was measured using the HTRF system purchased by Cisbio as follows. As a HER2 mutant enzyme, the HER2 A775_G776insYVMA mutant enzyme was used by purchasing a recombinant protein provided by Carna Biosciences.The composition of the assay buffer used for activity measurement was 50 mM tris-HCl pH 7.5, 100 mM NaCl, 7.5 mM MgCl2, 3 mM KCl, 0.01% tween 20, 0.1% BSA, and 1 mM DTT. In addition thereto, the enzymatic reaction was performed using a peptide substrate labeled with ATP at a concentration of […] and biotin at a concentration of […]. The analysis of the activity inhibitory effect of the compounds on HER2 A775_G776insYVMA mutation was performed according to the following method.Component 1:4 μL of HER2 A775_G776insYVMA mutant enzymeComponent 2:2 μL of compound solutionComponent 3:4 μL of ATP and a biotin labeled peptideThe enzyme reaction begins by first mixing component 1 and component 2 and then adding component 3 thereto. After the reaction at 37° C. for 2 hours, […] of a measurement solution consisting of streptavidin-XL665 and a europium-labeled anti-phosphotyrosine antibody purchased from Cisbio was added to the enzyme reaction solution and reacted at room temperature for 1 hour. Finally, the ratio of fluorescence values at 615 nm and 665 nm was measured using Perkin-Elmer's Envision equipment to calculate enzyme activity and confirm the inhibitory ability of the compounds.

The structures appear in SMILES notation.

T2 sequence (P00533 with tags, fused parts or gaps DEL746-750 limits assumed, stated change not applied): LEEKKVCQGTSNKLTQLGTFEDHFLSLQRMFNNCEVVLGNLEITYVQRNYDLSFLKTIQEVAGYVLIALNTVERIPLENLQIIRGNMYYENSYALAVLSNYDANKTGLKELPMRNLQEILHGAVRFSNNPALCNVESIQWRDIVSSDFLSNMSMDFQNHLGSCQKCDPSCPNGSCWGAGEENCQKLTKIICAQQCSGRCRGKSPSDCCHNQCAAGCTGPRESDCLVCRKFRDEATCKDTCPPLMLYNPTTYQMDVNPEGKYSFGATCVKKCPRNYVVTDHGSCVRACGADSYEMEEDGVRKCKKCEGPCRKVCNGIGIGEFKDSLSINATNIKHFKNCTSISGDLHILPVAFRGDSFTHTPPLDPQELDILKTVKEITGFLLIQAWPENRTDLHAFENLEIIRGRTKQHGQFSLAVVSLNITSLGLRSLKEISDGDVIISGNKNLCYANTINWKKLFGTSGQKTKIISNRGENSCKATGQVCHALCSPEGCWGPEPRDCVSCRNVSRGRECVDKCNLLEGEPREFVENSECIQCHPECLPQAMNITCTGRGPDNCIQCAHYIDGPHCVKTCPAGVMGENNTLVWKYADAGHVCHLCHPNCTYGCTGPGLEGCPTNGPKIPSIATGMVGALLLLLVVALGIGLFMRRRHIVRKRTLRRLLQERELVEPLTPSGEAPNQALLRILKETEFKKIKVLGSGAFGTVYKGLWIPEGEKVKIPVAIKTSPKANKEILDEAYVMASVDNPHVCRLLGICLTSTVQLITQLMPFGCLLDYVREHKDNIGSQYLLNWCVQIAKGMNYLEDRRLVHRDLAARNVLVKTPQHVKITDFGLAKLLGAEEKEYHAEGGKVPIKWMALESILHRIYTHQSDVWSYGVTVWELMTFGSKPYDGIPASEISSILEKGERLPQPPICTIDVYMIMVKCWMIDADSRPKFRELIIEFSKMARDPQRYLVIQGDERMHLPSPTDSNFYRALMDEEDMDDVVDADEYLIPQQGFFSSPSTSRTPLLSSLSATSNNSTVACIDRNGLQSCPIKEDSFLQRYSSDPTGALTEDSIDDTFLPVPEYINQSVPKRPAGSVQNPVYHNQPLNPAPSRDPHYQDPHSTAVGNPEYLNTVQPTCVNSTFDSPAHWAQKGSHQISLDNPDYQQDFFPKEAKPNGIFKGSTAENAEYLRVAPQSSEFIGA
T1 sequence (P00533 with tags, fused parts or gaps INS763FHEA limits assumed): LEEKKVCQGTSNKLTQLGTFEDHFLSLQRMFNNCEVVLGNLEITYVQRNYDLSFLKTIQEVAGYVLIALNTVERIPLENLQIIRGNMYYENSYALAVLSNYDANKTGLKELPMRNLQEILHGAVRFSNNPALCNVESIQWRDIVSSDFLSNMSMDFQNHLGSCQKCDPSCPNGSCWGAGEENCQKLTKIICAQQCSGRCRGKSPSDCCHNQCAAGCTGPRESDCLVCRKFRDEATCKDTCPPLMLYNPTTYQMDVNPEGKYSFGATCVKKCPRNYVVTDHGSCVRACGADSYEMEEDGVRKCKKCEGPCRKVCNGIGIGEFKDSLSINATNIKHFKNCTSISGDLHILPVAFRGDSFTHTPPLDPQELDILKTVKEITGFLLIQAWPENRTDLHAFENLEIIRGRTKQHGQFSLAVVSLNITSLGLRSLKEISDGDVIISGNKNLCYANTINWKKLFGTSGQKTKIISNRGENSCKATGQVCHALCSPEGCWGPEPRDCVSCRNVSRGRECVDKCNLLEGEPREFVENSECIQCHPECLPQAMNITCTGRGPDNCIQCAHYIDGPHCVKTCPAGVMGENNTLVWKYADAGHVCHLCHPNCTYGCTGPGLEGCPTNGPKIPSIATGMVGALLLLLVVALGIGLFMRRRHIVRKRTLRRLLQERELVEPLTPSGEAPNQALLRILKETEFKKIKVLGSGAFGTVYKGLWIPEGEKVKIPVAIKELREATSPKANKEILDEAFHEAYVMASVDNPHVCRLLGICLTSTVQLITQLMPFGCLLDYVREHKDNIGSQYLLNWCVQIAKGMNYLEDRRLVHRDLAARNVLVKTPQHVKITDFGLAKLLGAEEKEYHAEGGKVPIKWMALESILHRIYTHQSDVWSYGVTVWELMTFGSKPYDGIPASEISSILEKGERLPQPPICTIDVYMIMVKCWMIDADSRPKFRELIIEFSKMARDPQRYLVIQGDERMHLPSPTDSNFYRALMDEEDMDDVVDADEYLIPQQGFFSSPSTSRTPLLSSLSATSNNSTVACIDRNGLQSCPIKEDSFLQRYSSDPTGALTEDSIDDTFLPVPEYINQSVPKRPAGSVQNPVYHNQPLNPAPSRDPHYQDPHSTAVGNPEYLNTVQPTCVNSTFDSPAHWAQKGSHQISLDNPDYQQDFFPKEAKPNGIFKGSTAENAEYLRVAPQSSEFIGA
T3 sequence (P04626 with tags, fused parts or gaps INS775YVMA limits assumed): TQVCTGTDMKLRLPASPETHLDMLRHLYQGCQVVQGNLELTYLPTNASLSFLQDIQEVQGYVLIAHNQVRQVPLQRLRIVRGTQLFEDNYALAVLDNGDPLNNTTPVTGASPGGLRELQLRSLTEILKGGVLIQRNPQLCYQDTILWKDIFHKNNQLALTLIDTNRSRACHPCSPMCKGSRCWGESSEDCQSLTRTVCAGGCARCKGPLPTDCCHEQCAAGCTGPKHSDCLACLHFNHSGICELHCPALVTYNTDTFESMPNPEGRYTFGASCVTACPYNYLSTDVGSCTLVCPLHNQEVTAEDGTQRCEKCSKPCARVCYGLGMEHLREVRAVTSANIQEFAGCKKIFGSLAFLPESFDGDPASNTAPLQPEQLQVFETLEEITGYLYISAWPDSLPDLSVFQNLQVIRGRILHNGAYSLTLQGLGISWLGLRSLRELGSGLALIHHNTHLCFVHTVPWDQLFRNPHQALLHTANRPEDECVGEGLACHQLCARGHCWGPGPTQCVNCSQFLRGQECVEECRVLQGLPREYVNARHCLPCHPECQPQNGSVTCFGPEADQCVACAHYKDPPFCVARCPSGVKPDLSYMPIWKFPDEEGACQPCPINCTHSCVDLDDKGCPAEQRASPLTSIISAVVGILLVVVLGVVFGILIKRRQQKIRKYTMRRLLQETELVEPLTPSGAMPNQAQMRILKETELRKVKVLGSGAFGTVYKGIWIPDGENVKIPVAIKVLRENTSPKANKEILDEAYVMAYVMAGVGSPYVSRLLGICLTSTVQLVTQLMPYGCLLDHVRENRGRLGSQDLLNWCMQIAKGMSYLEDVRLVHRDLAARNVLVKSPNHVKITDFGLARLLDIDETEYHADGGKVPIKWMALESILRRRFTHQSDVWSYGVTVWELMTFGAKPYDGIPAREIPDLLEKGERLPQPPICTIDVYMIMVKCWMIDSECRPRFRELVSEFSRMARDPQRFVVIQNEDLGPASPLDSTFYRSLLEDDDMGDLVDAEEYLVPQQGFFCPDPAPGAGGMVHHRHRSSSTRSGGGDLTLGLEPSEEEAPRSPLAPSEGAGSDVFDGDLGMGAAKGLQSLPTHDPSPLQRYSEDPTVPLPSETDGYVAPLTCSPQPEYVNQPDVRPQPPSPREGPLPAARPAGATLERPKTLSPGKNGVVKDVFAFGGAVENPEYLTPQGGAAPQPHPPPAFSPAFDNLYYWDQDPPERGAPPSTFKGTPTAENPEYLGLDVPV

Take `COC(=O)c1cnc(Cl)nc1Nc1cccc2c1N(S(C)(=O)=O)CCC2` [US20240343694, Example 61]: the IC50 (commonly the concentration at which inhibition is half-maximal) in experiment [1] was under 1 nM; in experiment [2], under 1 nM; in experiment [3] it was 1 nM.
Turning to `Cc1ccc(S(=O)(=O)Nc2ccccc2Nc2nc(Cl)ncc2F)cc1` [US20240343694, Example 23], the IC50 in experiment [1] was 3 nM; in experiment [2], under 1 nM; in experiment [3], 30 nM.
With `CC(=O)N(C)c1c([N+](=O)[O-])ccc(C)c1C` [US20240343694, Example 84], the figures for the IC50 in experiment [1], in experiment [2] and in experiment [3] were 3 nM, 1 nM and 52 nM, respectively.
Turning to `COc1cc(N2CCOCC2)c(N)cc1Nc1ncc(Cl)c(Nc2ccccc2NS(C)(=O)=O)n1` [US20240343694, Example 36], the IC50 is 1 nM in experiment [1], under 1 nM in experiment [2] and 10 nM in experiment [3].
In the same order, the values of `C=CC(=O)Nc1cc(N)c(OC)cc1N(C)CCN(C(=O)OCc1ccccc1)C(C)C` [US20240343694, Example 32] are 1 nM, under 1 nM and 8 nM.
Regarding `Cc1cnc(Cl)nc1Nc1ccccc1NS(C)(=O)=O` [US20240343694, Example 24], the values for the IC50 in experiment [1], in experiment [2] and in experiment [3] were 3 nM, under 1 nM and 27 nM, respectively.
For `CN(c1c(Cl)cccc1Nc1nc(Cl)ncc1Cl)S(C)(=O)=O` [US20240343694, Example 45], the IC50 in experiment [1] was under 1 nM; in experiment [2], under 1 nM; in experiment [3], 8 nM.
Take `CC(=O)N(C)c1c(Nc2nc(Cl)ncc2Cl)ccc(C)c1C` [US20240343694, Example 86]: the values for the IC50 in experiment [1], in experiment [2] and in experiment [3] were 20 nM, 2 nM and 157 nM, respectively.
Take `CS(=O)(=O)N1CCc2cccc(Nc3nc(Cl)ncc3C(F)(F)F)c21` [US20240343694, Example 73]: the half-maximal inhibitory concentration (IC50) in experiment [1] is under 1 nM; in experiment [2] it was under 1 nM; in experiment [3], 5 nM.
Regarding `C=CC(=O)Nc1cc(N)c(OC)cc1N(C)CCN(C)C(=O)OCc1ccccc1` [US20240343694, Example 34], the IC50 is 1 nM in experiment [1], under 1 nM in experiment [2] and 20 nM in experiment [3].
Turning to `CS(=O)(=O)N1CCc2cccc(Nc3nc(Cl)ncc3Cl)c21` [US20240343694, Example 65], the IC50 in experiment [1] is under 1 nM; in experiment [2] it was under 1 nM; in experiment [3], 15 nM.
As for `C=CC(=O)Nc1cc(Nc2ncc(Cl)c(Nc3ccccc3NS(C)(=O)=O)n2)c(OC)cc1N(C)CCN(C)C(=O)OCc1ccccc1` [US20240343694, Example 35], the values for the IC50 in experiment [1], in experiment [2] and in experiment [3] were 3 nM, under 1 nM and 27 nM, respectively.
For `CCN(c1ccccc1Nc1nc(Cl)ncc1Cl)S(=O)(=O)CC` [US20240343694, Example 43], in that order: under 1 nM, under 1 nM and 8 nM.
With `Cc1cccc(Nc2nc(Cl)ncc2Cl)c1N(C)S(C)(=O)=O` [US20240343694, Example 48], the IC50 worked out at 7 nM in experiment [1], 3 nM in experiment [2] and 20 nM in experiment [3].
As for `CC(C)c1cccc(Nc2nc(Cl)ncc2Cl)c1N(C)S(C)(=O)=O` [US20240343694, Example 47], the results for the IC50 in experiment [1], in experiment [2] and in experiment [3] were under 1 nM, under 1 nM and 6 nM, respectively.
For `CCS(=O)(=O)N1CCc2cccc(Nc3nc(Cl)ncc3Cl)c21` [US20240343694, Example 66], the IC50 in experiment [1] was under 1 nM; in experiment [2] it was under 1 nM; in experiment [3], 5 nM.
`CC(C)OC(=O)c1cnc(Cl)nc1Nc1cccc2c1N(S(C)(=O)=O)CCC2` [US20240343694, Example 62] displayed an IC50 in experiment [3] of 3 nM.
In the case of `COc1cc(N2CCN(C)CC2)c(N)cc1Nc1ncc(Cl)c(Nc2ccccc2NS(C)(=O)=O)n1` [US20240343694, Example 37], the half-inhibitory concentration (IC50) in experiment [1] is 2 nM; in experiment [2], under 1 nM; in experiment [3] it was 26 nM.
As to `CS(=O)(=O)N1CCCc2cccc(Nc3nc(Cl)ncc3Cl)c21` [US20240343694, Example 57], the IC50 in experiment [1], in experiment [2] and in experiment [3] was under 1 nM throughout.
On to `Cc1cccc(Nc2nc(Cl)ncc2Cl)c1NS(C)(=O)=O` [US20240343694, Example 46], for which the IC50 was under 1 nM in experiment [1], under 1 nM in experiment [2] and 2 nM in experiment [3].
For `CS(=O)(=O)Nc1c(Cl)cccc1Nc1nc(Cl)ncc1Cl` [US20240343694, Example 44], the values for the IC50 in experiment [1], in experiment [2] and in experiment [3] were under 1 nM, under 1 nM and 6 nM, respectively.
As to `COC(=O)c1cnc(Cl)nc1Nc1cccc2c1N(S(C)(=O)=O)CC2` [US20240343694, Example 68], the IC50 is under 1 nM in experiment [1], under 1 nM in experiment [2] and 6 nM in experiment [3].
As to `Cc1cnc(Cl)nc1Nc1ccccc1NS(=O)(=O)c1ccccc1` [US20240343694, Example 28], the results for the IC50 in experiment [1], in experiment [2] and in experiment [3] were 8 nM, under 1 nM and 70 nM, respectively.
For `Cc1ccc(Nc2nc(Cl)ncc2Cl)c(N(C)S(C)(=O)=O)c1C` [US20240343694, Example 53], the IC50 in experiment [3] amounted to 10 nM.
Consider `CC(=O)Nc1c(Nc2nc(Cl)ncc2Cl)ccc(C)c1C` [US20240343694, Example 87], for which the IC50 came to 24 nM in experiment [1], 4 nM in experiment [2] and 107 nM in experiment [3].
For `O=S1(=O)CCCCN1c1ccccc1Nc1nc(Cl)ncc1Cl` [US20240343694, Example 78], in that order: under 1 nM, under 1 nM and 3 nM.
Take `C=CC(=O)Nc1cc(N)c(OC)cc1OCCN(C)C` [US20240343694, Example 71]: the IC50 in experiment [1] is 5 nM; in experiment [2], under 1 nM; in experiment [3] it was 61 nM.
For `Cc1ccc(Nc2nc(Cl)ncc2Cl)c(N(C)S(C)(=O)=O)c1` [US20240343694, Example 55], in that order: under 1 nM, under 1 nM and under 1 nM.
For `CCc1cccc(Nc2nc(Cl)ncc2Cl)c1NS(C)(=O)=O` [US20240343694, Example 50], in that order: 3 nM, under 1 nM and 60 nM.
In the same order, the values of `C=CC(=O)Nc1cc(N)c(OC)cc1N(C)CCN1CCC1` [US20240343694, Example 82] are under 1 nM, under 1 nM and 2 nM.
`C=CC(=O)Nc1cc(N)c(OC)cc1N(C)CCN1CCN(C)CC1` [US20240343694, Example 79]: the IC50 in experiment [1] was under 1 nM; in experiment [2], under 1 nM; in experiment [3], 1 nM.
For the compound `O=S1(=O)CCCN1c1ccccc1Nc1nc(Cl)ncc1Cl` [US20240343694, Example 77], the IC50 in experiment [1] is under 1 nM; in experiment [2], under 1 nM; in experiment [3], 2 nM.
Turning to `C=CC(=O)Nc1cc(N)c(OC)cc1N(C)CCN1CCOCC1` [US20240343694, Example 63], the IC50 in experiment [3] was under 1 nM.
Regarding `Cc1ccc(Nc2nc(Cl)ncc2Cl)c(NS(C)(=O)=O)c1C` [US20240343694, Example 54], the IC50 in experiment [1] is under 1 nM; in experiment [2] it was under 1 nM; in experiment [3] it was 10 nM.
As to `CN(c1c(Nc2nc(Cl)ncc2Cl)ccc2nccnc12)S(C)(=O)=O` [US20240343694, Example 75], the IC50 was under 1 nM in experiment [1], under 1 nM in experiment [2] and 3 nM in experiment [3].
As to `Cc1ccc(Nc2nc(Cl)ncc2Cl)c(NS(C)(=O)=O)c1` [US20240343694, Example 56], the IC50 in experiment [1], in experiment [2] and in experiment [3] was under 1 nM throughout.
For the compound `CCCS(=O)(=O)Nc1ccccc1Nc1nc(Cl)ncc1C` [US20240343694, Example 26], the IC50 in experiment [1] was determined as 200 nM; in experiment [2], 4 nM; in experiment [3], 80 nM.
